Results published in EP0431659B1, “Pharmaceutical compositions of tebufelone” (THE PROCTER & GAMBLE COMPANY, priority 1989, dated 1991).

How the values were obtained:
[1] = absorption from the gastrointestinal tract after peroral dosing; assay type: in vivo; conditions: dosed in conventional solid dosage forms, such as tablets or powders in capsules
[2] = water solubility of tebufelone; assay type: physicochemical; conditions: water (essentially water-insoluble)

absorption of tebufelone from the gastrointestinal tract [1]: quite low
solubility [2]: < 1 µg/mL
SMILES: C#CCCCC(=O)c1cc(C(C)(C)C)c(O)c(C(C)(C)C)c1 [tebufelone, 1-[3,5-bis(1,1-dimethylethyl)-4-hydroxyphenyl]-5-hexyn-1-one]
